Measured values: patent US20250136669A1, “VHH ANTIBODY” (TEIKYO HEISEI UNIVERSITY, priority 2021, published 2025)

What was measured:
[1] = system: Staphylococcus aureus ATCC25923; assay: Colistin MIC with antibody, Staphylococcus aureus; assay type: cell-based; settings: same in absence and presence of 10 μg/mL 4P41 LZ trimer
Description: The minimum growth inhibitory concentration (MIC) of an antimicrobial agent was measured by a microbroth dilution method in accordance with the Clinical Laboratory Standards Institute (CLSI) guideline. The serially diluted antimicrobial agent was added to a 96-well round bottom microtiter plate (Watson Co., Ltd.) at 100 μL/well, and each bacterial strain was inoculated at 5×10^5 CFU/mL/well. As the antimicrobial agent, Aztreonam (Sigma-Aldrich), Amikacin (Sigma-Aldrich), Arbekacin (Meiji Seika Pharma Co., Ltd.), Ofloxacin (Sigma-Aldrich), colistin (Sigma-Aldrich), and Polymyxin B (Sigma-Aldrich) were used. Synergistic effect of an antibody and an antimicrobial agent was evaluated using a checkerboard dilution method. Each of the antimicrobial agents was serially two-fold diluted in the vertical direction in a 96-well round bottom titer plate to concentrations between 0.125 to 2 times the MIC. Subsequently, an antibody was serially two-fold diluted in the horizontal direction of the plate in a range of 0 to 10 μg/mL or 0 to 20 μg/mL. Each bacterial strain was inoculated at 5×10^5 CFU/mL/well.
A multidrug-resistant Pseudomonas aeruginosa NCGM2.S1 and drug-susceptible Pseudomonas aeruginosa PAO1 and OCR1 were cultured using Luria Bertani (LB) medium (BD) or an LB plate containing 15 g/L of agar at 37° C. […]

[2] = system: multidrug-resistant Pseudomonas aeruginosa NCGM2.S1; assay: Silkworm Pseudomonas aeruginosa infection model; assay type: in vivo; settings: colistin alone administration group, probit analysis
Description: A: Overnight culture solution of NCGM2.S1 was diluted by 100 times and cultured for 16 hours and was then injected into hemolymph of silkworms on the 2nd day of the 5th instar, and 0.05 mL of colistin was then injected into the blood. The survival rates were measured over 96 hours. […] The survival rates were measured over 96 hours. […] The survival rates were measured over 96 hours.
Overnight culture solution of multidrug-resistant Pseudomonas aeruginosa NCGM2.S1 was diluted 100 times and was further cultured overnight. The bacterial culture solution was diluted with physiological saline (Otsuka Pharmaceutical Co., Ltd.), and 0.05 mL thereof was injected into hemolymph from the dorsal surface using a 1-mL injection syringe (Terumo Corporation) and 27-gauge syringe needle (Terumo Corporation), and the silkworm larvae were fed at 27° C. The median lethal dose was measured from the survival rate after 24 hours, and 0.05 mL of the bacteria in an amount 4 times the median lethal dose was injected to make a silkworm Pseudomonas aeruginosa infection model.

Pseudomonas aeruginosa = settings: fraction of MIC, Non Patent Literatures 4 and 5; cited from earlier work
[3] = system: multidrug-resistant Pseudomonas aeruginosa strain NCGM2.S1; assay: Drug susceptibility test (MIC, microbroth dilution, CLSI) with antibody added; assay type: cell-based; settings: NCGM2.S1, antibody 10 μg/mL, FIG. 14B
Description: B: MIC of colistin in the presence of an antibody. The MIC of colistin in the presence of each antibody in NCGM2.S1 was measured by a microbroth dilution method in accordance with the CLSI guideline. […] As the negative control, a 4P6 trimer which is a human TRAIL-R1 VHH trimer was used.
The minimum growth inhibitory concentration (MIC) of an antimicrobial agent was measured by a microbroth dilution method in accordance with the Clinical Laboratory Standards Institute (CLSI) guideline. The serially diluted antimicrobial agent was added to a 96-well round bottom microtiter plate (Watson Co., Ltd.) at 100 μL/well, and each bacterial strain was inoculated at 5×10^5 CFU/mL/well. As the antimicrobial agent, Aztreonam (Sigma-Aldrich), Amikacin (Sigma-Aldrich), Arbekacin (Meiji Seika Pharma Co., Ltd.), Ofloxacin (Sigma-Aldrich), colistin (Sigma-Aldrich), and Polymyxin B (Sigma-Aldrich) were used. Synergistic effect of an antibody and an antimicrobial agent was evaluated using a checkerboard dilution method. Each of the antimicrobial agents was serially two-fold diluted in the vertical direction in a 96-well round bottom titer plate to concentrations between 0.125 to 2 times the MIC. Subsequently, an antibody was serially two-fold diluted in the horizontal direction of the plate in a range of 0 to 10 μg/mL or 0 to 20 μg/mL. Each bacterial strain was inoculated at 5×10^5 CFU/mL/well. […]

[4] = system: ovalbumin-loop 1 peptide (loop 1 of OprM); assay: ELISA binding of VHH monomer to loop 1 antigen; parameters: species or system Pseudomonas aeruginosa; settings: purified monomer protein
Description: In the anti-loop 1 VHH antibody, 0.1 M NaHCO3 (Blank), 0.1 M NaHCO3 containing […] of thyroglobulin, 0.1 M NaHCO3 containing 10 μg/mL of thyroglobulin-loop 1 peptide, or 0.1 M NaHCO3 containing 10 μg/mL of ovalbumin-loop 1 peptide was added to a 96-well immuno plate (Nunc) at 40 μL/well and was left to stand at 4° C. overnight.
In the anti-loop 2 VHH antibody, 0.1 M NaHCO3 (Blank), 0.1 M NaHCO3 containing […] of KLH-loop 2 peptide was added to a 96-well immuno plate (Nunc) at 40 μL/well and was left to stand at 4° C. overnight. SuperBlock-PBS (Thermo Fisher Scientific) was added to the plate at 350 μL/well and left to stand at room temperature for 1 hour. After washing with 400 μL/well of PBS-T (phosphate buffer saline containing 0.05% Tween 20), 40 µL/well of SuperBlock-TBS containing 0.2 μg/mL of the VHH antibody was added thereto, followed by reaction at room temperature for 1 hour. The wells were washed with 400 μL/well of PBS-T again three times, and 40 μL/well of anti-Myc mouse monoclonal antibody 9E10 (Santa Cruz Biotechnology Inc.) diluted 500 times with SuperBlock-TBS was added thereto, followed by reaction at room temperature for 1 hour. […] Subsequently, absorbance at 450 nm was measured, and the average and standard deviation were calculated of triplicate or quadruplicate measurement.

colistin
MIC of colistin in Staphylococcus aureus [1]: > 128 µg/mL | therapeutically effective dose ED50 of colistin [2]: 124 μg/g body weight

c1ccc2c(c1)Nc1ccccc1S2 [phenothiazine]
decrease of the MIC value of an antimicrobial agent in Pseudomonas aeruginosa (Pseudomonas aeruginosa): ⅛

c1ccc2c(CN3CCNCC3)cccc2c1 [NMP, 1-(1-naphthylmethyl)-piperazine]
decrease of the MIC value of an antimicrobial agent in Pseudomonas aeruginosa (Pseudomonas aeruginosa): ⅛

B1: 4P94 monomer: anti-loop 1 VHH antibody from alpaca, monomer with cMyc-Tag and His-Tag (protein)
VHH: EVQLVESGGGLVQAGNSLKLSCVVSGRTLRNYAMGWFRQAPLKEREFVAAIGWTTGTASYGTPTYSDSVKGRFTISRDNAGNTLYLLMNNLKPEDTAVYYCAAGLIGYFGDRISSASVYDGWGQGTQVTVSS
modifications: left off: small tags and cut ends
notes: anti-loop 1 VHH antibody from alpaca, monomer with cMyc-Tag and His-Tag
change in MIC of colistin, antibody added at 10 μg/mL [3]: ¼ | binding to ovalbumin-loop 1 peptide [4]: specifically bound
